Each compound was assayed against IRAK4 (Homo sapiens (Human), UniProt Q9NWZ3) (assay: In vitro IRAK4 phosphorylation activity assay). Settings: [γ-33P]-ATP, myelin basic protein substrate, 40 minutes at room temperature; categories.
Format: biochemical
In short: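 Radiometric filter-binding assay, no compound–kinase preincubation; 8 mM MOPS pH 7.0, 0.2 mM EDTA, 10 mM Mg acetate, 0.33 mg/mL myelin basic protein substrate, [γ-33P]-ATP. Reaction 40 min at room temperature, stopped with phosphoric acid, scintillation counting; IC50 reported in categories.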

IRAK4, sequence (Q9NWZ3 whole entry): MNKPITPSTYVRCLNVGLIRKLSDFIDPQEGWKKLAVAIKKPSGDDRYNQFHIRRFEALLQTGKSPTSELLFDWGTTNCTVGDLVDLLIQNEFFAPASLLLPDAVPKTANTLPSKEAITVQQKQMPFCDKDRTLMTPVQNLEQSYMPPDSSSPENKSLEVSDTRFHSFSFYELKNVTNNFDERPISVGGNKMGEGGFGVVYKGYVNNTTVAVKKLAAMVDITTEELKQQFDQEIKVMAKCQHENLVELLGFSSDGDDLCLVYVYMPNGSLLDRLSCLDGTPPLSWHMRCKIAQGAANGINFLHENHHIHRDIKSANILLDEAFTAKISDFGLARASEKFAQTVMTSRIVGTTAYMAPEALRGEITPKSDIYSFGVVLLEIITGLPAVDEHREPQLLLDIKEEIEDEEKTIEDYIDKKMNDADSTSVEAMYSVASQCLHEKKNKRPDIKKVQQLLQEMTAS

| IC50 [nM] | Structure (SMILES) |
| --- | --- |
| < 50 | CNC(=O)CCCc1cn(-c2ccccc2)c(NC(=O)c2cccc(-c3cnn(C)c3)c2)n1 [Example 139, 3-(1-methyl-1H-pyrazol-4-yl)-N-(4-(4-(methylamino)-4-oxobutyl)-1-phenyl-1H-imidazol-2-yl)benzamide] |
| < 50 | Cn1cc(-c2cccc(C(=O)Nc3nc(CCCC(=O)N4CCCC[C@@H]4CCO)cn3-c3ccccc3)c2)cn1 [Example 174, (R)—N-(4-(4-(2-(2-hydroxyethyl)piperidin-1-yl)-4-oxobutyl)-1-phenyl-1H-imidazol-2-yl)-3-(1-methyl-1H-pyrazol-4-yl)benzamide] |
| < 50 | O=C(Nc1nc(CCCN2CCSCC2)cn1-c1ccccc1)c1cccc(-c2cn[nH]c2)c1 [Example 110, N-(1-phenyl-4-(3-thiomorpholinopropyl)-1H-imidazol-2-yl)-3-(1H-pyrazol-4-yl)benzamide] |
| < 50 | Cn1cc(-c2cccc(C(=O)Nc3nc(CCCC(=O)N4CC[C@@H](N)C4)cn3-c3ccccc3)c2)cn1 [Example 212, (R)—N-(4-(4-(3-aminopyrrolidin-1-yl)-4-oxobutyl)-1-phenyl-1H-imidazol-2-yl)-3-(1-methyl-1H-pyrazol-4-yl)benzamide] |
| > 100 | Cn1cc(-c2cccc(C(=O)Nc3nc(CCCC(=O)NCCN4CCOCC4)cn3-c3ccccc3)c2)cn1 [Example 184, 3-(1-methyl-1H-pyrazol-4-yl)-N-(4-(4-((2-morpholinoethyl)amino)-4-oxobutyl)-1-phenyl-1H-imidazol-2-yl)benzamide] |
| > 100 | O=C(Nc1nc(CCCCNc2ccccc2)cn1-c1ccccc1)c1cccc(-c2cn[nH]c2)c1 [Example 112, N-(1-phenyl-4-(4-(phenylamino)butyl)-1H-imidazol-2-yl)-3-(1H-pyrazol-4-yl)benzamide] |
| < 50 | CNC(=O)CCCCCc1cn(-c2ccccc2)c(NC(=O)c2cccc(-c3cn[nH]c3)c2)n1 [Example 94, N-(4-(6-(methylamino)-6-oxohexyl)-1-phenyl-1H-imidazol-2-yl)-3-(1H-pyrazol-4-yl)benzamide] |
| 50 to 100 | CN(C)CCNC(=O)CCCc1cn(-c2ccccc2)c(NC(=O)c2cccc(-c3cnn(C)c3)c2)n1 [Example 162, N-(4-(4-((2-(dimethylamino)ethyl)amino)-4-oxobutyl)-1-phenyl-1H-imidazol-2-yl)-3-(1-methyl-1H-pyrazol-4-yl)benzamide] |
| < 50 | Cn1cc(-c2cccc(C(=O)Nc3nc(CCCC(=O)N4CCCCC4)cn3-c3ccccc3)c2)cn1 [Example 142, 3-(1-methyl-TH-pyrazol-4-yl)-N-(4-(4-oxo-4-(piperidin-1-yl)butyl)-1-phenyl-1H-imidazol-2-yl)benzamide] |
| < 50 | O=C(Nc1nc(CCCN2CCOCC2)cn1-c1ccccc1)c1cccc(-c2cn[nH]c2)c1 [Example 107, N-(4-(3-morpholinopropyl)-1-phenyl-1H-imidazol-2-yl)-3-(1H-pyrazol-4-yl)benzamide] |
| < 50 | Cn1cc(-c2cccc(C(=O)Nc3nc(CCCC(=O)NC4CC4)cn3-c3ccccc3)c2)cn1 [Example 141, N-(4-(4-(cyclopropylamino)-4-oxobutyl)-1-phenyl-1H-imidazol-2-yl)-3-(1-methyl-1H-pyrazol-4-yl)benzamide] |
| < 50 | Cn1cc(-c2cccc(C(=O)Nc3nc(CCCC(=O)N4CCC[C@H](N)C4)cn3-c3ccccc3)c2)cn1 [Example 211, (S)—N-(4-(4-(3-aminopiperidin-1-yl)-4-oxobutyl)-1-phenyl-1H-imidazol-2-yl)-3-(1-methyl-1H-pyrazol-4-yl)benzamide] |
| < 50 | CN1CCN(C(=O)CCCCCc2cn(-c3ccccc3)c(NC(=O)c3cccc(-c4cnn(C)c4)c3)n2)CC1 [Example 201, 3-(1-methyl-1H-pyrazol-4-yl)-N-(4-(6-(4-methylpiperazin-1-yl)-6-oxohexyl)-1-phenyl-1H-imidazol-2-yl)benzamide] |
| 50 to 100 | CNC(=O)CCCc1cn(-c2ccc(F)cc2F)c(NC(=O)c2cccc(-c3cn[nH]c3)c2)n1 [Example 298, N-(1-(2,4-difluorophenyl)-4-(4-(methylamino)-4-oxobutyl)-1H-imidazol-2-yl)-3-(1H-pyrazol-4-yl)benzamide] |
| < 50 | Cn1cc(-c2cccc(C(=O)Nc3nc(CCCC(=O)NCC4CCOCC4)cn3-c3ccccc3)c2)cn1 [Example 172, 3-(1-methyl-1H-pyrazol-4-yl)-N-(4-(4-oxo-4-(((tetrahydro-2H-pyran-4-yl)methyl)amino)butyl)-1-phenyl-1H-imidazol-2-yl)benzamide] |
| 50 to 100 | Cn1cc(-c2cccc(C(=O)Nc3nc(CCCC(=O)NN4CCCCC4)cn3-c3ccccc3)c2)cn1 [Example 152, 3-(1-methyl-1H-pyrazol-4-yl)-N-(4-(4-oxo-4-(piperidin-1-ylamino)butyl)-1-phenyl-1H-imidazol-2-yl)benzamide] |
| 50 to 100 | COC[C@@H]1CCCN1C(=O)Cc1cn(-c2ccccc2)c(NC(=O)c2cccc(-c3cn[nH]c3)c2)n1 [Example 46, (S)—N-(4-(2-(2-(methoxymethyl)pyrrolidin-1-yl)-2-oxoethyl)-1-phenyl-1H-imidazol-2-yl)-3-(1H-pyrazol-4-yl)benzamide] |
| > 100 | COC[C@H]1CCCN1C(=O)Cc1cn(-c2ccccc2)c(NC(=O)c2cccc(-c3cn[nH]c3)c2)n1 [Example 47, (R)—N-(4-(2-(2-(methoxymethyl)pyrrolidin-1-yl)-2-oxoethyl)-1-phenyl-1H-imidazol-2-yl)-3-(1H-pyrazol-4-yl)benzamide] |
| > 100 | O=C(Nc1nc(CCCCCCN2CCCCC2)cn1-c1ccc(F)cc1F)c1cccc(-c2cn[nH]c2)c1 [Example 302, N-(1-(2,4-difluorophenyl)-4-(6-(piperidin-1-yl)hexyl)-1H-imidazol-2-yl)-3-(1H-pyrazol-4-yl)benzamide] |
| < 50 | O=C(CCCCCc1cn(-c2ccccc2)c(NC(=O)c2cccc(-c3ccc4[nH]ncc4c3)c2)n1)NC1CC1 [Example 238, N-(4-(6-(cyclopropylamino)-6-oxohexyl)-1-phenyl-1H-imidazol-2-yl)-3-(1H-indazol-5-yl)benzamide] |
| < 50 | C[C@@H]1CCCCN1C(=O)CCCCc1cn(-c2ccccc2)c(NC(=O)c2cccc(-c3cn[nH]c3)c2)n1 [Example 83, (R)—N-(4-(5-(2-methylpiperidin-1-yl)-5-oxopentyl)-1-phenyl-1H-imidazol-2-yl)-3-(1H-pyrazol-4-yl)benzamide] |
| < 50 | O=C(Nc1nc(CCC(=O)N2CCCCC2)cn1-c1ccccc1)c1cccc(-c2cn[nH]c2)c1 [Example 12, N-(4-(3-oxo-3-(piperidin-1-yl)propyl)-1-phenyl-1H-imidazol-2-yl)-3-(1H-pyrazol-4-yl)benzamide] |
| < 50 | Cn1cc(-c2cccc(C(=O)Nc3nc(CCCC(=O)N4CCCC[C@@H]4C(F)(F)F)cn3-c3ccccc3)c2)cn1 [Example 176, (R)-3-(1-methyl-1H-pyrazol-4-yl)-N-(4-(4-oxo-4-(2-(trifluoromethyl)piperidin-1-yl)butyl)-1-phenyl-1H-imidazol-2-yl)benzamide] |
| < 50 | CN(C)C1CCN(C(=O)CCCCCc2cn(-c3ccccc3)c(NC(=O)c3cccc(-c4ccc5ncsc5c4)c3)n2)CC1 [Example 287, 3-(benzo[d]thiazol-6-yl)-N-(4-(6-(4-(dimethylamino)piperidin-1-yl)-6-oxohexyl)-1-phenyl-1H-imidazol-2-yl)benzamide] |

Reference: patent US12534452B2, “N-(1H-imidazol-2-yl)benzamide compound and pharmaceutical composition comprising the same as active ingredient” (KAINOS MEDICINE, INC., priority 2019, dated 2026)
